Laboratory results published in patent US20160158246A1, “METHOD OF TREATING DIFFUSE LARGE B-CELL LYMPHOMA (DLBCL) USING A BET-BROMODOMAIN INHIBITOR” (ONCOETHIX GMBH, priority 2013, published 2016).

How the values were obtained:
[1] = target: mTORC1 (Homo sapiens, UniProt P42345); conditions: cited from earlier work
[2] = target: Bruton's tyrosine kinase (BTK) (Homo sapiens, UniProt Q06187); conditions: in intact cells and in cell-free systems; cited from earlier work
[3] = system: PKC; conditions: cited from earlier work
[4] = system: Lyn, Syk, PKA, casein kinase I, ERK1, ERK2 and p38 kinase; conditions: cited from earlier work
[5] = target: BTK and PKCβII (Homo sapiens, UniProt Q06187); conditions: in intact cells and in cell-free systems; cited from earlier work
BTK and PKCβII, sequence (Q06187 whole entry, species assumed): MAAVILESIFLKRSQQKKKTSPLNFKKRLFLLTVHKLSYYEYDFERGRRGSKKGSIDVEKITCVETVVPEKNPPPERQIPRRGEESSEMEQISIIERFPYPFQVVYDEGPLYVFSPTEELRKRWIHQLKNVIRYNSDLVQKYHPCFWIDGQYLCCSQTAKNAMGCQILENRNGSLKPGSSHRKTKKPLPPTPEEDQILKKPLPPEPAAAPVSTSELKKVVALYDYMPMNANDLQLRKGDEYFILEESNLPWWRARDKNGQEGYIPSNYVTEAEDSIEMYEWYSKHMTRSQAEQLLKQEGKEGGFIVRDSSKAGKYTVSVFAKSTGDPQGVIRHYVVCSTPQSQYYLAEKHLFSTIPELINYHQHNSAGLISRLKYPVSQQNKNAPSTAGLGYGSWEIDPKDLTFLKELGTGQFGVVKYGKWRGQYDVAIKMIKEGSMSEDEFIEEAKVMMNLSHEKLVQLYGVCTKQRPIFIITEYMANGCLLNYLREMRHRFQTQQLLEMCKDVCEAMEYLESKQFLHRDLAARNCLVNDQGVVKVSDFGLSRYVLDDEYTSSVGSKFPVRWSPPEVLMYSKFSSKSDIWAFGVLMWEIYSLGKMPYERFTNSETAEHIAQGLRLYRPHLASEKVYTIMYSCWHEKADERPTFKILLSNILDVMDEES

[6] = system: NFKB target genes (IRF4, TNFAIP3 and BIRC3); assay: PCR of NFKB target genes; type: cell-based
[7] = system: pSTAT3 and p50 (NFKB 1) in ABC cell lines; assay: immunoblotting and immunohistochemistry; type: cell-based
[8] = system: IL10 and IL4 production; assay: IL10 and IL4 production; type: cell-based; conditions: after 24 hours treatment
[9] = system: DLBCL cell lines (SU-DHL-6, SU-DHL-2); assay: gene expression profiling (Illumina HumanHT-12 Expression BeadChips); type: cell-based
Description: Baseline gene expression profiles (GEP) were obtained in 38 lymphoma cell lines, including 22 DLBCL with Illumina HumanHT-12 v4 Expression BeadChip. GEP before and after OTX015 treatment were done in […] DLBCL cell lines, too. The relationship between GEP and IC50 values was assessed by Pearson correlation. LIMMA was used for differential expression analysis, followed by Benjamini-Hochberg multiple test correction, and GSEA to test for enrichment of functionally-related genes.
Cell lines: 22 diffuse large B-cell lymphoma (DLBCL), 4 mantle cell lymphomas, 3 multiple myelomas, 3 splenic marginal zone lymphoma and 1 prolymphocytic leukemia. Anti-proliferative of OTX015 (OncoEthix SA, Switzerland) was assessed by MTT and its cytotoxic activity by Annexin V staining and gene expression profiling (GEP) with Illumina HumanHT-12 Expression BeadChips. Data mining was done with LIMMA, GSEA, Metacore.
We performed GEP on 2 cell lines (SU-DHL-6, SU-DHL-2), treated with DMSO or OTX015 (500 nM) for 1, 2, 4, 8 or 12 hours.

[10] = system: pAktS473, pGSK3βS9, pS6, pMAPK, pAktT308; conditions: cited from earlier work
[11] = target: mTORC2 (Homo sapiens, UniProt P42345); conditions: cited from earlier work
[12] = SU-DHL-6, SU-DHL-2, 500 nM for 1, 2, 4, 8 or 12 hours

Bruton's tyrosine kinase (BTK), sequence (Q06187 whole entry, species assumed): as above

COc1cccc2cc(-c3nc([C@H]4CC[C@H](C(=O)O)CC4)n4ncnc(N)c34)[nH]c12 [OSI-027]
IC50 [1]: 22 nM

CC1=C(O)C(=O)[C@@H]2O[C@@H]2C1=O [Terreic acid, (1R,6S)-3-Hydroxy-4-methyl-7-oxabicyclo[4.1.0]hept-3-ene-2,5-dione]
catalytic activity of BTK [2]: Inhibits the catalytic activity of BTK
activity of PKC [3]: without affecting the activity of PKC
effect on activities of Lyn, Syk, PKA, casein kinase I, ERK1, ERK2 and p38 kinase [4]: little or no effect
interaction between BTK and PKCβII [5]: Inhibits the catalytic activity of BTK as well as the interaction between BTK and PKCβII

Cc1sc2c(c1C)C(c1ccc(Cl)cc1)=N[C@@H](CC(=O)Nc1ccc(O)cc1)c1nnc(C)n1-2 [Compound (1-1), 2-[(6S)-4-(4-chlorophenyl)-2,3,9-trimethyl-6H-thienol[3,2-f]-[1,2,4]triazolo[4,3-a][1,4]diazepin-6-yl]-N-(4-hydroxyphenyl)acetamide dihydrate]
NFKB target gene expression (PCR) [6]: NFKB target genes (IRF4, TNFAIP3 and BIRC3) were also downregulated
nuclear localization of p50 (NFKB 1) [7]: reduction in nuclear localization of p50 (NFKB 1)
transcriptionally active pSTAT3 ([7]; 2 ABC cell lines): reduction of transcriptionally active pSTAT3
IL10 and IL4 production [8]: IL10 and IL4 production was reduced
MYD88/JAK/STAT pathway expression (additional GEP) ([9]; Example 7): down-regulation of the MYD88/JAK/STAT pathway
genes downregulated (GEP), members of the NFKB, TLR and JAK/STAT pathways [9, 12]: downregulated MYD88, IRAK1, TLR6, IL6, STAT3, and TNFRSF17
most frequently downregulated gene (GEP) [9, 12]: MYC was the most frequently downregulated gene
most upregulated genes (GEP) [9, 12]: Most upregulated genes were histones

COc1ccc(COc2cc3oc(=O)c4cc(C(C)O)ccc4c3cc2OC)cc1 (stereo not shown) [Palomid 529]
effect on phosphorylation markers [10]: reduces phosphorylation of pAktS473, pGSK3βS9, and pS6 but neither pMAPK nor pAktT308
mTORC2 complex inhibition [11]: inhibits both the mTORC1 and mTORC2 complexes
mTORC1 complex inhibition [1]: inhibits both the mTORC1 and mTORC2 complexes
